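Grown in 96-well plates, cells were treated for 48 hours with each compound at five concentrations. Insufficient inhibition: endpoint recorded as highest concentration tested. Here, GI50 denotes the concentration required for 50% inhibition of growth. TGI marks complete inhibition of growth.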
What was measured:
Assay in all cases: inhibition of tumour cell growth, NCI panel, 48 h
786-0 renal = system: 786-0 renal
A498 renal = system: A498 renal
A549 NSCLC = system: A549 NSCLC
ACHN renal = system: ACHN renal
BT-549 breast = system: BT-549 breast
CAKI-1 renal = system: CAKI-1 renal
CCRF-CEM leukemia = system: CCRF-CEM leukemia
COLO 205 colon = system: COLO 205 colon
DU-145 prostate = system: DU-145 prostate
HCC-2998 colon = system: HCC-2998 colon
HCT-116 colon = system: HCT-116 colon
HCT-15 colon = system: HCT-15 colon
HL-60(TB) leukemia = system: HL-60(TB) leukemia
HOP-62 NSCLC = system: HOP-62 NSCLC
HOP-92 NSCLC = system: HOP-92 NSCLC
HS 578T breast = system: HS 578T breast
HT29 colon = system: HT29 colon
IGROV1 ovarian = system: IGROV1 ovarian
K-562 leukemia = system: K-562 leukemia
KM12 colon = system: KM12 colon
LOX IMVI melanoma = system: LOX IMVI melanoma
M14 melanoma = system: M14 melanoma
MALME-3M melanoma = system: MALME-3M melanoma
MCF7 breast = system: MCF7 breast
MDA-MB-231 breast = system: MDA-MB-231 breast
MDA-MB-435 = system: MDA-MB-435
MOLT-4 leukemia = system: MOLT-4 leukemia
NCI-H226 lung = system: NCI-H226 lung
NCI-H23 lung = system: NCI-H23 lung
NCI-H460 lung = system: NCI-H460 lung
NCI-H522 lung = system: NCI-H522 lung
NCI/ADR-RES ovarian = system: NCI/ADR-RES ovarian
OVCAR-3 ovarian = system: OVCAR-3 ovarian
OVCAR-4 ovarian = system: OVCAR-4 ovarian
OVCAR-5 ovarian = system: OVCAR-5 ovarian
OVCAR-8 ovarian = system: OVCAR-8 ovarian
PC-3 prostate = system: PC-3 prostate
RPMI-8226 leukemia = system: RPMI-8226 leukemia
RXF 393 renal = system: RXF 393 renal
SF-268 CNS = system: SF-268 CNS
SF-295 CNS = system: SF-295 CNS
SF-539 CNS = system: SF-539 CNS
SK-MEL-2 melanoma = system: SK-MEL-2 melanoma
SK-MEL-28 melanoma = system: SK-MEL-28 melanoma
SK-MEL-5 melanoma = system: SK-MEL-5 melanoma
SK-OV-3 ovarian = system: SK-OV-3 ovarian
SN12C renal = system: SN12C renal
SNB-19 CNS = system: SNB-19 CNS
SNB-75 CNS = system: SNB-75 CNS
SR leukemia = system: SR leukemia
SW-620 colon = system: SW-620 colon
T-47D breast = system: T-47D breast
TK-10 renal = system: TK-10 renal
U251 CNS = system: U251 CNS
UACC-257 melanoma = system: UACC-257 melanoma
UACC-62 melanoma = system: UACC-62 melanoma
UO-31 renal = system: UO-31 renal

## CC(C)(C)c1[nH]nc2c1C(c1cc3ccccc3[nH]c1=O)Nc1cc(C(=O)Nc3ccc(Cl)cc3)ccc1N2 (centres undefined)
786-0 renal
  GI50: 2.3 µM
  TGI: 5.54 µM
A498 renal
  GI50: 1.58 µM
  TGI: 3.8 µM
A549 NSCLC
  GI50: 4.66 µM
  TGI: > 100 µM
ACHN renal
  GI50: 4.71 µM
  TGI: > 64.7 µM
BT-549 breast
  GI50: 2.37 µM
  TGI: 6.65 µM
CAKI-1 renal
  GI50: > 100 µM
  TGI: > 100 µM
CCRF-CEM leukemia
  GI50: 2.16 µM
  TGI: > 21.6 µM
COLO 205 colon
  GI50: 2.88 µM
  TGI: 6.46 µM
DU-145 prostate
  GI50: 4.26 µM
  TGI: > 48.4 µM
HCC-2998 colon
  GI50: 2.64 µM
  TGI: 6.52 µM
HCT-116 colon
  GI50: 3.11 µM
  TGI: 10.7 µM
HCT-15 colon
  GI50: > 28.8 µM
  TGI: > 100 µM
HL-60(TB) leukemia
  GI50: 2.33 µM
  TGI: 5.64 µM
HOP-62 NSCLC
  GI50: 3.14 µM
  TGI: 10 µM
HOP-92 NSCLC
  GI50: 2.03 µM
  TGI: 6.05 µM
HS 578T breast
  GI50: 2.38 µM
  TGI: > 28.8 µM
HT29 colon
  GI50: 3.46 µM
  TGI: 13 µM
IGROV1 ovarian
  GI50: 3.28 µM
  TGI: 8.95 µM
K-562 leukemia
  GI50: 2.94 µM
  TGI: > 54.9 µM
KM12 colon
  GI50: 3.33 µM
  TGI: 16.2 µM
LOX IMVI melanoma
  GI50: 2.98 µM
  TGI: 9.21 µM
M14 melanoma
  GI50: 2.12 µM
  TGI: 4.75 µM
MALME-3M melanoma
  GI50: 1.92 µM
  TGI: 4.41 µM
MCF7 breast
  GI50: 2.55 µM
  TGI: 15.3 µM
MDA-MB-231 breast
  GI50: 2.26 µM
  TGI: 6.32 µM
MDA-MB-435
  GI50: 1.84 µM
  TGI: 4.84 µM
MOLT-4 leukemia
  GI50: 2.32 µM
  TGI: 7.91 µM
NCI-H226 lung
  GI50: 2.94 µM
  TGI: 11.1 µM
NCI-H23 lung
  GI50: 2.6 µM
  TGI: 7.31 µM
NCI-H460 lung
  GI50: 3.21 µM
  TGI: 18.2 µM
NCI-H522 lung
  GI50: 2.71 µM
  TGI: 6.94 µM
NCI/ADR-RES ovarian
  GI50: > 100 µM
  TGI: > 100 µM
OVCAR-3 ovarian
  GI50: 1.93 µM
  TGI: 3.82 µM
OVCAR-4 ovarian
  GI50: 2.12 µM
  TGI: 6.96 µM
OVCAR-5 ovarian
  GI50: 3.84 µM
  TGI: 39 µM
OVCAR-8 ovarian
  GI50: 3.04 µM
  TGI: 11 µM
PC-3 prostate
  GI50: 3.15 µM
  TGI: 11.7 µM
RPMI-8226 leukemia
  GI50: 1.9 µM
  TGI: 5.27 µM
RXF 393 renal
  GI50: 1.94 µM
  TGI: 3.7 µM
SF-268 CNS
  GI50: 3.66 µM
  TGI: 29.5 µM
SF-295 CNS
  GI50: 2.77 µM
  TGI: 8.82 µM
SF-539 CNS
  GI50: 2.34 µM
  TGI: 6.49 µM
SK-MEL-2 melanoma
  GI50: 2 µM
  TGI: 4.05 µM
SK-MEL-28 melanoma
  GI50: 3.76 µM
  TGI: 21.5 µM
SK-MEL-5 melanoma
  GI50: 1.77 µM
  TGI: 3.55 µM
SK-OV-3 ovarian
  GI50: 3.04 µM
  TGI: 8.01 µM
SN12C renal
  GI50: 3.15 µM
  TGI: 14 µM
SNB-19 CNS
  GI50: 2.68 µM
  TGI: 11.9 µM
SNB-75 CNS
  GI50: 2.27 µM
  TGI: 6.51 µM
SR leukemia
  GI50: 2.56 µM
  TGI: > 24.9 µM
SW-620 colon
  GI50: 3.13 µM
  TGI: 12.3 µM
T-47D breast
  GI50: 2.5 µM
  TGI: 9.14 µM
TK-10 renal
  GI50: 3.71 µM
  TGI: 17.2 µM
U251 CNS
  GI50: 3.08 µM
  TGI: 11.4 µM
UACC-257 melanoma
  GI50: 2.33 µM
  TGI: 7.31 µM
UACC-62 melanoma
  GI50: 2.03 µM
  TGI: 4.41 µM
UO-31 renal
  GI50: 46 µM
  TGI: > 100 µM
